These results are taken from EPA's ToxValDB 9.5.

Values joined by “and” are separate entries in the source; they are usually repeats but may differ in a detail not shown here. Identical values can stand only once.

This data set has as its system Rattus norvegicus. Particulars: for LD50: acute.
Where [1] appears, read: subchronic, duration: 90 days, clinical chemistry.
[2] abbreviates: subchronic, duration: 90 days, oral, diet, M/F, Wistar, no effects.
Setting [3] is: subchronic, duration: 90 days, oral, M/F, Sprague-Dawley, histopathology: neoplastic.
[4] abbreviates: subchronic, duration: 90 days, oral, diet, M/F, Sprague-Dawley, histopathology: nonneoplastic.
Where [5] appears, read: subchronic, duration: 90 days, oral, gavage, M, hematological.
Where [6] appears, read: subchronic, duration: 90 days, no effects.
The mark [7] stands for this setting: subchronic, duration: 90 days, oral, diet.
The mark [8] stands for this setting: subchronic, duration: 90 days, oral, gavage, M/F, body weight.
The mark [9] stands for this setting: subchronic, duration: 90 days, oral.
Where [10] appears, read: subchronic, duration: 90 days, oral, diet, M/F, no effects.
Setting [11] is: subchronic, duration: 13 weeks, oral, gavage.

In general, NOAEL refers to the highest tested level that showed no adverse finding. Regarding `Cc1noc(C)c1Cn1cc(N2C(=O)CN(Cc3cccc(O)c3)C2=O)cn1`, the NOAEL (subchronic, duration: 13 weeks, oral, diet, no effects) was determined as 100 mg/kg-day.

As to `Cc1ccc(OCC(=O)N(Cc2cccs2)c2ccn[nH]2)cc1`, the NOAEL came to 1000 mg/kg-day (reproduction developmental, oral, gavage, F, no effects) and 100 mg/kg-day (subchronic, duration: 13 weeks, oral, gavage, M/F, no effects).

Consider `COc1ccc(C=CC(=O)NCCc2ccc(OC)c(OC)c2)cc1OC`, for which the NOAEL (subchronic, duration: 90 days, oral, diet, M/F, Sprague-Dawley, hematological) came out at 23 mg/kg-day.

`CC(C)[C@@H]1CC[C@@H](C)C[C@@H]1NC(=O)C1CC1` showed an NOAEL (subchronic, duration: 90 days, oral, diet, M/F, Sprague-Dawley, body weight) of 147 mg/kg-day.

`CC1SCCSS1` (stereo not given) [1,2,4-Trithiane, 3-methyl-]: the NOEL (subchronic, duration: 13 weeks, oral, diet) worked out at 0.3 mg/kg-day.

In turn, `COc1cccc(OC)c1` [1,3-Dimethoxybenzene] yielded an NOAEL (subchronic, duration: 90 days, oral, no effects) of 10 mg/kg-day.

Consider `SCCCCS` [1,4-Butanedithiol], for which, where the note is “subchronic, duration: 90 days, oral, diet, M/F, Sprague-Dawley, no effects”, the NOAEL is 0.703 mg/kg-day (5×) and 0.705 mg/kg-day (5×).

`CCCCCO` [1-Pentanol]: for the setting “subchronic, duration: 90 days, oral, gavage, no effects”, the NOAEL came out at 1000 mg/kg-day.

As for `Clc1ccc(-c2ccc(Cl)c(Cl)c2Cl)c(Cl)c1Cl` [2,2',3,3',4,4'-Hexachlorobiphenyl], the NOAEL under setting [1] came to 0.8 mg/kg-day.

The molecule `Clc1cc(Cl)c(-c2cc(Cl)c(Cl)cc2Cl)cc1Cl` [2,2',4,4',5,5'-Hexachlorobiphenyl] came in with a no observed adverse effect level (NOAEL) under setting [1] of 1.2 mg/kg-day.

Under “chronic, duration: 2 years”, `CC1COC(C)O1` (stereo not given) [2,4-Dimethyl-1,3-dioxolane] registered an NOEL of 2500 mg/kg-day.

Under setting [2], `CSSc1cc(C)oc1C` [2,5-Dimethyl-3-(methyldisulfanyl)furan] showed an NOAEL of 5 mg/kg-day.

For `O=C(O)c1ccc(C(=O)O)o1` [2,5-Furandicarboxylic acid], the no observed adverse effect level (NOAEL) (subchronic, duration: 90 days, oral, gavage, M/F, Wistar, body weight) turned out to be 300 mg/kg-day.

As for `CC(=O)c1ccc[nH]1` [2-Acetylpyrrole], the no-observed-adverse-effect level (NOAEL) worked out at 0.048 mg/kg-day under setting [3], 48 mg/kg-day under setting [4] and 48 mg/kg-day under setting [5].

For the molecule `CC(=O)c1nccs1` [2-Acetylthiazole], the NOAEL (subchronic, duration: 90 days, oral, diet, body weight) worked out at 50 mg/kg-day.

Regarding `CCCCC(CC)COC(=O)c1ccc(N(C)C)cc1` (stereo not given) [2-Ethylhexyl 4-(dimethylamino)benzoate], the NOAEL (short-term, duration: 4 weeks, M/F, histopathology: nonneoplastic) turned out to be 100 mg/kg-day.

In turn, `Cc1occc1S` [2-Methyl-3-furanthiol] returned an NOAEL under setting [6] of 5 mg/kg-day.

Molecule `CC1OCCC1=O` (stereo not given) [2-Methyltetrahydrofuran-3-one] showed a no-observed-adverse-effect level (NOAEL) under setting [6] of 91 mg/kg-day.

With `CCCC(C)=O` [2-Pentanone], for the setting “subchronic, duration: 13 weeks, oral, gavage, M/F, organ weight”, the no observed adverse effect level (NOAEL) worked out at 20 mg/kg-day.

Molecule `CCC(=O)c1ccc[nH]1` [2-Propionylpyrrole] showed a no observed adverse effect level (NOAEL) under setting [3] of 0.048 mg/kg-day and an NOAEL under setting [5] of 48 mg/kg-day.

Under setting [7], `SCc1ccccn1` [2-Pyridinemethanethiol] displayed an NOAEL of 3.4 mg/kg-day.

Take `CSSSCc1ccco1` [2-[(Methyltrisulfanyl)methyl]furan]: the no-observed-adverse-effect level (NOAEL) under setting [2] worked out at 0.56 mg/kg-day.

Regarding `C/C=C/C=C/C(=O)O` [2E,4E-Hexadienoic acid], the no observed adverse effect level (NOAEL) (reproduction developmental, oral, gavage, M/F, Crj:CD, body weight) was found to be 300 mg/kg-day.

`O=C1CCc2ccccc2O1` [3,4-Dihydrocoumarin] displayed an NOAEL (chronic, duration: 2 years, oral, gavage) of 300 mg/kg-day; an NOAEL (subchronic, duration: 13 weeks) of 150 mg/kg-day; a no observed adverse effect level (NOAEL) (subchronic, duration: 13 weeks, hematological) of 150 mg/kg-day.

`OCCc1ccc(O)c(O)c1` [3,4-Dihydroxyphenylethanol]: the NOAEL runs as follows: under setting [8], 50 mg/kg-day; (subchronic, duration: 90 days, oral, gavage, Wistar, body weight) 250 mg/kg-day.

Molecule `C=C=CC(C)C(=O)OCC` (stereo not given) [3,4-Pentadienoic acid, 2-methyl-, ethyl ester] returned a no-observed-adverse-effect level (NOAEL) (chronic, duration: 92 days) of 1 mg/kg-day.

In turn, `CCC=C1OC(=O)c2ccccc21` [3-Propylidenephthalide] displayed an NOAEL under setting [9] of 5.42 mg/kg-day.

`Cc1occc1SC(C)CC=O` (stereo not given) [3-[(2-Methylfuran-3-yl)sulfanyl]butanal] registered a no observed adverse effect level (NOAEL) under setting [10] of 3.76 mg/kg-day.

`C/C=C/C=C\CC/C=C/C(=O)NCC(C)C` [(E,Z,E)-N-(2-Methylpropyl)-2,6,8-decatrienamide] showed an NOAEL under setting [4] of 23.4 mg/kg-day.

For orientation: LOAEL means the lowest dose or exposure tested at which an adverse effect was seen. `C=CCN=C=S` [Allyl isothiocyanate]: the LOAEL (chronic, duration: 103 weeks, oral, gavage, M, histopathology: nonneoplastic) was determined as 9 mg/kg-day. The same molecule yielded a no observed adverse effect level (NOAEL) (chronic, duration: 721 days, oral, gavage, M/F, histopathology: neoplastic) of 12 mg/kg-day.

The molecule `CSCc1ccccc1` [Benzyl methyl sulfide] returned an NOAEL under setting [9] of 0.43 mg/kg-day.

Regarding `CCC[CH2][Sn]([CH2]CCC)([CH2]CCC)[O][Sn]([CH2]CCC)([CH2]CCC)[CH2]CCC` [Bis(tributyltin)oxide], the NOAEL (chronic, duration: 2 years, oral, diet, M/F, Wistar, histopathology: neoplastic) was found to be 0.025 mg/kg-day.

With `O=C1CCCCCN1` [Caprolactam], under setting [7], the NOEL came to 750 mg/kg-day.

Take `O=C([O-])c1ccccn1.O=C([O-])c1ccccn1.O=C([O-])c1ccccn1.[Cr+3]` [Chromium picolinate]: the no-observed-adverse-effect level (NOAEL) (chronic, duration: 2 years, M/F, Fischer 344, no effects) amounted to 2400 mg/kg-day.

Consider `CC(/C=C/C=C(C)/C=C/C(=O)[O-])=C\C=C\C=C(C)\C=C\C=C(C)\C=C\C(=O)[O-].[K+].[K+]` [Dipotassium 6,6'-diapo-psi,psi-carotenedioate], for which the NOAEL (subchronic, duration: 13 weeks, oral, diet, M/F, Sprague-Dawley, clinical chemistry) amounted to 30 mg/kg-day.

Take `CCCSSSCCC` [Dipropyl trisulfide]: the NOEL under setting [11] was 4.8 mg/kg-day.

The molecule `CCOC(=O)c1ccccc1O` [Ethyl salicylate] registered an NOAEL (chronic, duration: 2 years, oral, growth) of 50 mg/kg-day.

In the case of `CCOC(C)(C)C` [Ethyl t-butyl ether], under “chronic, duration: 6 months, oral, gavage, M/F, Sprague-Dawley, organ weight”, the NOAEL was determined as 100 mg/kg-day.

`CCOC(=O)c1ccc(O)cc1` [Ethylparaben]: the no-observed-adverse-effect level (NOAEL) (subchronic, duration: 8 weeks, M, Wistar, no effects) was 1040 mg/kg-day.

The molecule `O=C(O)c1cc(O)c(O)c(O)c1` [Gallic acid] displayed an NOAEL (subchronic, duration: 13 weeks, oral, M/F, organ weight) of 119 mg/kg-day.

For `OCc1c[nH]c2ccccc12` [Indole-3-carbinol], for the setting “chronic, duration: 37 weeks, oral, diet, M, no effects”, the NOAEL turned out to be 50 mg/kg-day.

For the molecule `NCCS(=O)(=O)[O-].NCCS(=O)(=O)[O-].[Fe+2]` [Iron(II) taurate], under “subchronic, duration: 13 weeks, oral, gavage, M/F, Crj:CD, no effects”, the no observed adverse effect level (NOAEL) was 1000 mg/kg-day.

Regarding `NC(N)=NCCC[C@H](N)C(=O)O` [L-Arginine], the NOAEL (subchronic, duration: 13 weeks, M/F, Crj:CD, no effects) was determined as 3.13 mg/kg-day.

Where the note is “subchronic, duration: 90 days, oral, M/F, Wistar”, `CC(=O)N[C@H]1[C@H](O[C@H]2[C@@H](O)[C@@H](CO)O[C@@H](O[C@H]3[C@H](O)[C@@H](O)C(O)O[C@@H]3CO)[C@@H]2O)O[C@H](CO)[C@@H](O)[C@@H]1O[C@@H]1O[C@H](CO)[C@H](O)[C@H](O)[C@H]1O` (stereo not given in full) [Lacto-N-tetraose] registered a no observed adverse effect level (NOAEL) of 5000 mg/kg-day.

In turn, `C=C(C)C1CC=C(C)CC1` (stereo not given) [Limonene] had an NOAEL (chronic, duration: 103 weeks, oral, gavage, F, mortality) of 215 mg/kg-day. Under “subchronic, duration: 13 weeks, histopathology: nonneoplastic”, this molecule had an NOEL of 10 mg/kg-day.

As for `CC1=C[C@H](O)CC(C)(C)[C@H]1/C=C/C(C)=C/C=C/C(C)=C/C=C/C=C(C)/C=C/C=C(C)/C=C/C1=C(C)C[C@@H](O)CC1(C)C` [Lutein A], the LEL (subchronic, duration: 13 weeks, oral, no effects) came to 260 mg/kg-day. For the same molecule, the NOAEL under setting [2] came out at 200 mg/kg-day.

In the case of `Cc1cccc(C)c1N(Cn1cccn1)C(=O)CCl` [Metazachlor], the no-observed-adverse-effect level (NOAEL) is, setting by setting: (chronic, duration: 2 years, organ weight) 8.5 mg/kg-day; (developmental, development) 50 mg/kg-day; (subchronic, duration: 90 days, oral, organ weight) 21 mg/kg-day.

On to `CCCCCCCCCCCC(=O)N[C@@H](CCCN=C(N)N)C(=O)OCC` [N alpha-Lauroyl-L-arginine ethyl ester], for which the no observed adverse effect level (NOAEL) (subchronic, duration: 13 weeks, oral, M/F, Sprague-Dawley, clinical chemistry) is 47 mg/kg-day.

Take `CCNC(=O)C1CC(C)CCC1C(C)C` (stereo not given) [N-Ethyl-2-(isopropyl)-5-methylcyclohexanecarboxamide]: the NOEL (short-term, duration: 28 days, oral, gavage, M/F, Crj:CD) stood at 8 mg/kg-day.

For `Oc1ccccc1` [Phenol], the NOAEL runs as follows: (developmental, duration: 10 days, oral, gavage, F, Sprague-Dawley, development) 120 mg/kg-day; (reproduction developmental, duration: 10 days, oral, gavage, F, body weight) 60 mg/kg-day.

Molecule `NCCCCN` [Putrescine] had an LD50 (oral, F, mortality) of 463 mg/kg.

As to `CSc1nccnc1C(C)C` [Pyrazine, 2-(1-methylethyl)-3-(methylthio)-], the NOAEL (subchronic, duration: 13 weeks, oral, diet, M/F, no effects) is 1.63 mg/kg-day.

In the case of `Cc1cc2nc3c(=O)[nH]c(=O)nc-3n(C[C@H](O)[C@H](O)[C@H](O)CO)c2cc1C` [Riboflavin], where the note is “subchronic, duration: 90 days, M/F, Wistar, no effects”, the no observed adverse effect level (NOAEL) is 160 mg/kg-day.

Under setting [8], `CC(=O)SCc1ccco1` [S-Furfuryl thioacetate] came in with a no observed adverse effect level (NOAEL) of 3 mg/kg-day.

Turning to `[Cl][Sn][Cl]` [Stannous chloride], for the setting “subchronic, duration: 90 days, oral, diet, M/F, Wistar, body weight”, the NOAEL is 63 mg/kg-day.

For the molecule `CC1=NCCS1` [Thiazole, 4,5-dihydro-2-methyl-], the NOAEL was found to be 1.8 mg/kg-day (subchronic, duration: 90 days) and 1.8 mg/kg-day under setting [10].

The molecule `CC(C)(C)c1ccc(OP(Oc2ccc(C(C)(C)C)cc2C(C)(C)C)Oc2ccc(C(C)(C)C)cc2C(C)(C)C)c(C(C)(C)C)c1` [Tris(2,4-di-tert-butylphenyl) phosphite] yielded a no-observed-adverse-effect level (NOAEL) (chronic, duration: 2 years, oral, no effects) of 58 mg/kg-day.

Where the note is “oral, mortality”, `NC(N)=O` [Urea] had an LD50 of 14300 mg/kg-day. The same molecule gave an NOEL (reproduction developmental, reproduction) of 2250 mg/kg-day.

`CC1=C(/C=C/C(C)=C/C=C/C(C)=C/C=C/C=C(C)/C=C/C=C(C)/C=C/C2=C(C)C[C@@H](O)CC2(C)C)C(C)(C)C[C@H](O)C1` [Zeaxanthin] registered an NOAEL (reproduction developmental, oral, M/F, reproduction) of 150 mg/kg-day.

`CC(O)c1ccccc1` (stereo not drawn) [alpha-Methylbenzyl alcohol] returned an LOAEL under setting [11] of 93 mg/kg-day.
